IC50 data for 15 compounds are collected here from patent publication US10829490B2, “Substituted dihydropyrazino[1 ′,2′:1,5]pyrrolo[2,3-d]pyrimidine-based antiproliferative agents” (G1 Therapeutics, Inc., priority 2016, dated 2020).

Holding throughout (type): biochemical
Assay [1] deals with CDK5/p25 (Homo sapiens (Human), UniProt Q00535). Description: CDK5/p25 kinase inhibition (Biological Table 2).
Assay [2] concerns the target CDK4/CycD (Homo sapiens (Human), UniProt P11802). Description: CDK4/CycD kinase inhibition (Biological Table 1).
The target in assay [3] is CDK9/CycT (Homo sapiens (Human), UniProt P50750). The assay can be described thus: CDK9/CycT kinase inhibition (Biological Table 2).
Chain of CDK9/CycT (P50750 whole entry): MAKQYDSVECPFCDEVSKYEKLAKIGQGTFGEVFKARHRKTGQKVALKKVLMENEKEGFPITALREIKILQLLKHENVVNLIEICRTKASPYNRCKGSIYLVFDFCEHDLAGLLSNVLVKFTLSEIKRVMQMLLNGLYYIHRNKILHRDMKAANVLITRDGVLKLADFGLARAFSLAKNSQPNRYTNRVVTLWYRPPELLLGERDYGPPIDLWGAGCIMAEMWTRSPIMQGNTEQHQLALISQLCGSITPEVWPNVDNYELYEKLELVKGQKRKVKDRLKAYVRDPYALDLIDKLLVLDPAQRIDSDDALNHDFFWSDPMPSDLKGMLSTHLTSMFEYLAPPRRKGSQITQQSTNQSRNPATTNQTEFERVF
Chain of CDK9/CycT (O60563 whole entry partner): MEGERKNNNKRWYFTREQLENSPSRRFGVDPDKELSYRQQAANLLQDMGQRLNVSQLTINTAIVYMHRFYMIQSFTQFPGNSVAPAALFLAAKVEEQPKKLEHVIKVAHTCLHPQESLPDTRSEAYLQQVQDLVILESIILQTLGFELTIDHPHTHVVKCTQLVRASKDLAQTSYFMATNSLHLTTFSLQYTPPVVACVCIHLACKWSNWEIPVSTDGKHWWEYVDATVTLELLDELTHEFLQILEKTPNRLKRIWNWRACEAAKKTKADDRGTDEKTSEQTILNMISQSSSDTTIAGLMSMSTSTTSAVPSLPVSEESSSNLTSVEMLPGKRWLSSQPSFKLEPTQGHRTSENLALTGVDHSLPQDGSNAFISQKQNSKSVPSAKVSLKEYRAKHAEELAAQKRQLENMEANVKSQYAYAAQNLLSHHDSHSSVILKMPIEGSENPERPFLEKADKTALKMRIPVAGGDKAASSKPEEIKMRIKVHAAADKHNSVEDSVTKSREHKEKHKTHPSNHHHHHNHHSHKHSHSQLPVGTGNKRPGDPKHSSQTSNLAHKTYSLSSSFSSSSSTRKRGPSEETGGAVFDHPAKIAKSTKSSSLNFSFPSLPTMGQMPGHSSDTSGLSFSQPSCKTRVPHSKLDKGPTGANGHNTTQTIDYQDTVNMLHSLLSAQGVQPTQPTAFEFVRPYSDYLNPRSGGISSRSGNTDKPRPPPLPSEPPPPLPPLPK
In assay [4] the target is CDK2/CycA (Homo sapiens (Human), UniProt P24941). Description: CDK2/CycA kinase inhibition (Biological Table 1).
The target in assay [5] is CDK5/p35 (Homo sapiens (Human), UniProt Q00535). The assay can be described thus: CDK5/p35 kinase inhibition (Biological Table 1).
Chain of CDK5/p35 (Q00535 whole entry): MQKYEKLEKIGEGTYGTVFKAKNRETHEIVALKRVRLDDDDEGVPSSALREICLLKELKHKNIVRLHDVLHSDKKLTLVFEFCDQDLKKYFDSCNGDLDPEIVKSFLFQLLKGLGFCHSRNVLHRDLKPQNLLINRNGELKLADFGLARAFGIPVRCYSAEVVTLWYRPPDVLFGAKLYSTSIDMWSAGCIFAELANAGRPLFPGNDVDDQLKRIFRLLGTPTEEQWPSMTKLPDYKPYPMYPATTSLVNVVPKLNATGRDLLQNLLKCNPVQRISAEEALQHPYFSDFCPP
Chain of CDK5/p35 (Q15078 whole entry partner): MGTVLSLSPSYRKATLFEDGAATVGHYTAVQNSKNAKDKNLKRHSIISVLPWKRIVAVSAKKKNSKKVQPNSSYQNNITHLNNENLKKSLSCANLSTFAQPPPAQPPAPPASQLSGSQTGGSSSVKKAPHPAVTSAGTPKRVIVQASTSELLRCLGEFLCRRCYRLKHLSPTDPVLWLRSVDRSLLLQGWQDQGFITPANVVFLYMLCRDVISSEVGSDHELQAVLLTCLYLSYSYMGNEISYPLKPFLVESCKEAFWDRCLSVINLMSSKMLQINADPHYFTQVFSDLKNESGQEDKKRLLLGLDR
The target in assay [6] is CDK6/CycD3 (Homo sapiens (Human), UniProt Q00534). The assay can be described thus: CDK6/CycD3 kinase inhibition (Biological Table 1).
Chain of CDK6/CycD3 (Q00534 whole entry): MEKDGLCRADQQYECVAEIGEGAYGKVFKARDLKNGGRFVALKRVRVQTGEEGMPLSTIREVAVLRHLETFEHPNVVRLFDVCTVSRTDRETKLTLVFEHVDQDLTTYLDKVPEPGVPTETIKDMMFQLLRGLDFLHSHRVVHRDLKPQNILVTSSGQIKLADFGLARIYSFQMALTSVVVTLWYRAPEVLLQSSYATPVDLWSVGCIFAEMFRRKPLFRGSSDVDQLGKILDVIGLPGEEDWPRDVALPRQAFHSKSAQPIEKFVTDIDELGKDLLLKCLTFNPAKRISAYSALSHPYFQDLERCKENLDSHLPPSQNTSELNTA
Chain of CDK6/CycD3 (P30281 whole entry partner): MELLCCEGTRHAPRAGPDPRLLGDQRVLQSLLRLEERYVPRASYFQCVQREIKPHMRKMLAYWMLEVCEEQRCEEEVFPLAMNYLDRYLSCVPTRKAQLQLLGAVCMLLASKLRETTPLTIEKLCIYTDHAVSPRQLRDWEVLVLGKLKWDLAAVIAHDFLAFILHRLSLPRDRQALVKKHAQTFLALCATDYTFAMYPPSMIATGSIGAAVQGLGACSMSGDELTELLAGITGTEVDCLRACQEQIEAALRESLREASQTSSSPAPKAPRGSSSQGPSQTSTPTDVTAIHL
Assay [7] addresses CDK2/CycE (Homo sapiens (Human), UniProt P24941). The assay can be described thus: CDK2/CycE kinase inhibition (Biological Table 1).
Assay [8] has as its target CDK7/CycH/MAT1 (Homo sapiens (Human), UniProt P50613). The assay can be described thus: CDK7/CycH/MAT1 kinase inhibition (Biological Table 2).
Assay [9] addresses CDK9/Cyclin T (Homo sapiens (Human), UniProt P50750). The assay can be described thus: CDK9/Cyclin T kinase assay (Biological Table 3).
Assay [10] has as its target CDK2/CyclinE (Homo sapiens (Human), UniProt P24941). The assay can be described thus: CDK2/cyclinE kinase assay, microfluidic kinase detection (Caliper, Nanosyn). The note with it: 12-point dose-response, ATP at Km (100 μM), enzyme 0.28 nM, incubation 1 hr; read-out: CDK2/Cyclin E. The protocol: (§1) Selected compounds disclosed herein were tested in CDK4/cyclinD1, CDK2/CycA and CDK2/cyclinE kinase assays by Nanosyn (Santa Clara, Calif.) to determine their inhibitory effect on these CDKs. The assays were performed using microfluidic kinase detection technology (Caliper Assay Platform). The compounds were tested in 12-point dose-response format in singlicate at Km for ATP. Phosphoacceptor substrate peptide concentration used was 1 μM for all assays and Staurosporine was used as the reference compound for all assays. Specifics of each assay are as described below:
CDK2/CyclinE: Enzyme concentration: 0.28 nM; ATP concentration: 100 μM; Incubation time: 1 hr.

In assay [11] the target is CDK2/CyclinA (Homo sapiens (Human), UniProt P24941). The assay can be described thus: CDK2/CycA kinase assay, microfluidic kinase detection (Caliper, Nanosyn). The conditions noted are these: 12-point dose-response, ATP at Km (50 μM), enzyme 0.2 nM, incubation 3 hr; read-out: CDK2/Cyclin A. The protocol:
as §1
CDK2/CyclinA: Enzyme concentration: 0.2 nM; ATP concentration: 50 μM; Incubation time: 3 hr.

Assay [12] has as its target CDK4/CyclinD1 (Homo sapiens (Human), UniProt P11802). Description: CDK4/cyclinD1 kinase assay, microfluidic kinase detection (Caliper, Nanosyn). The conditions noted are these: 12-point dose-response, ATP at Km (200 μM), enzyme 1 nM, incubation 10 hr; read-out: CDK4/Cyclin D1. The procedure: as §1
CDK4/CyclinD1: Enzyme concentration: 1 nM; ATP concentration: 200 μM; Incubation time: 10 hr.

Assay [13] deals with CDK6/Cyclin D3 (Homo sapiens (Human), UniProt Q00534). The assay can be described thus: CDK6/Cyclin D3 kinase assay (Biological Table 3). The protocol: [Worded in the source for another target; this target is reported under the same test.] Selected compounds disclosed herein were tested in CDK4/cyclinD1, CDK2/CycA and CDK2/cyclinE kinase assays by Nanosyn (Santa Clara, Calif.) to determine their inhibitory effect on these CDKs. The assays were performed using microfluidic kinase detection technology (Caliper Assay Platform). The compounds were tested in 12-point dose-response format in singlicate at Km for ATP. Phosphoacceptor substrate peptide concentration used was 1 μM for all assays and Staurosporine was used as the reference compound for all assays.
Chain of CDK6/Cyclin D3 (Q00534 whole entry): as the sequence (Q00534 whole entry) above
Chain of CDK6/Cyclin D3 (P30281 whole entry partner): as the sequence (P30281 whole entry partner) above

Chain of CDK5/p25 (Q00535 whole entry): as the sequence (Q00535 whole entry) above
Chain of CDK4/CycD (P11802 whole entry): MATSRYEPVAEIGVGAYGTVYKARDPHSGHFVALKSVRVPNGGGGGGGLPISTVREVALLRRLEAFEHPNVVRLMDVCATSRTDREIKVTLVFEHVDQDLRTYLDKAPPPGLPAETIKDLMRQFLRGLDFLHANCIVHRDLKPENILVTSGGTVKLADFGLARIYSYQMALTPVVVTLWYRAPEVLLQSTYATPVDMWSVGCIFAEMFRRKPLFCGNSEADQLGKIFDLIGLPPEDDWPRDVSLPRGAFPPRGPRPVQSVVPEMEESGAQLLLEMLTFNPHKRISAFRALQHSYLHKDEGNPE
Chain of CDK4/CycD (P24385 whole entry partner): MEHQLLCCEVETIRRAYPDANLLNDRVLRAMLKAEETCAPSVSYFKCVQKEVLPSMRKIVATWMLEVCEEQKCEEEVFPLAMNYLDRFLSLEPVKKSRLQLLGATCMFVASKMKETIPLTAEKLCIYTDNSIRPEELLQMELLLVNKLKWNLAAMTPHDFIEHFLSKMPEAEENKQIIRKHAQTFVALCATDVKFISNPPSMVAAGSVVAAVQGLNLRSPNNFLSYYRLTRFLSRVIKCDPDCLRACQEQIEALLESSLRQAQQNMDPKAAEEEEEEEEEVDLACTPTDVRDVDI
Chain of CDK4/CyclinD1 (P11802 whole entry): as the sequence (P11802 whole entry) above
Chain of CDK4/CyclinD1 (P24385 whole entry partner): as the sequence (P24385 whole entry partner) above
Chain of CDK9/Cyclin T (P50750 whole entry): as the sequence (P50750 whole entry) above
Chain of CDK9/Cyclin T (O60563 whole entry partner): as the sequence (O60563 whole entry partner) above
Chain of CDK7/CycH/MAT1 (P50613 whole entry): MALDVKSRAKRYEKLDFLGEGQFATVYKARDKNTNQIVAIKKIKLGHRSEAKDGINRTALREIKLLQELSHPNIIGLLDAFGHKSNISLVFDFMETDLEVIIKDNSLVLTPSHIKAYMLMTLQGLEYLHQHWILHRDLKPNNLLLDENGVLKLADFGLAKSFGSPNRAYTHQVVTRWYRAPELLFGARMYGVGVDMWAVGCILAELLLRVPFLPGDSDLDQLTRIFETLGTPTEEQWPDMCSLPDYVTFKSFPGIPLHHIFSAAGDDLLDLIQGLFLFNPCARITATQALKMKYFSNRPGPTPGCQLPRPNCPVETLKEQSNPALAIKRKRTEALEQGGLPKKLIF
Chain of CDK7/CycH/MAT1 (P51946 whole entry partner): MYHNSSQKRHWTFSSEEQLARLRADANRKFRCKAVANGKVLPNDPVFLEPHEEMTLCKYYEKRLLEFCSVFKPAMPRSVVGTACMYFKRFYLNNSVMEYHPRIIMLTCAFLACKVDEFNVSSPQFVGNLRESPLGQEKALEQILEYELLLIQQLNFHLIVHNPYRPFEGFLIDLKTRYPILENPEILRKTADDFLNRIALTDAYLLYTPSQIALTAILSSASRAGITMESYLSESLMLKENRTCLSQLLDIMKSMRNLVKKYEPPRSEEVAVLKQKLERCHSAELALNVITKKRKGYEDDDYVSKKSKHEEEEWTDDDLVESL
Chain of CDK7/CycH/MAT1 (P51948 whole entry partner): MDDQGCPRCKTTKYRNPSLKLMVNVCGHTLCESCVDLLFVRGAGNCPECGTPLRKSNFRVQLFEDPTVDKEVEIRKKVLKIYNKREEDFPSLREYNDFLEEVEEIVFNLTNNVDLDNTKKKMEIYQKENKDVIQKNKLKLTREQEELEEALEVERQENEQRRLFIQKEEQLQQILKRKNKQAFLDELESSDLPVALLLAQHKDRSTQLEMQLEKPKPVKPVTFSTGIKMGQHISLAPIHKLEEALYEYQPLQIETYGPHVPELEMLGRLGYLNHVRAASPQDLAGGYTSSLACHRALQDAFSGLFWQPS

On to `CN1CCN(c2ccc(Nc3ncc4c(n3)N3C(CC4)C(=O)NCC3(C)C)nc2)CC1` (centres unmarked) [Compound 2, 10,10-dimethyl-2-((5-(4-methylpiperazin-1-yl)pyridin-2-yl)amino)-6,6a,9,10-tetrahydro-5H-pyrazino[1′,2′:1,6]pyrido[2,3-d]pyrimidin-7(8H)-one], for which the IC50 in [1], in assay [2], in assay [3], in [4], in assay [5] and in [6] was above 100 µM in each case. In assay [7], this compound showed an IC50 above 100 µM.

Regarding `CN1CCN(c2ccc(Nc3ncc4c(n3)N3C(CC4=O)C(=O)NCC34CCCCC4)nc2)CC1` (centres unmarked) [Compound 3], the IC50 in assay [1], in assay [2], in assay [8], in assay [3], in [4] and in assay [5] was above 100 µM in each case. Moreover, the IC50 in assay [6] and in assay [7] was above 100 µM throughout.

With `CN1CCN([C@H]2CC[C@@H](Nc3ncc4cc5n(c4n3)C3(CCCCC3)CNC5=O)CC2)CC1` [Compound 41, 2′-(((1S,4S)-4-(4-Methylpiperazin-1-yl)cyclohexyl)amino)-7′,8′-dihydro-6′H-spiro[cyclohexane-1,9′-pyrazino[1′,2′:1,5]pyrrolo[2,3-d]pyrimidin]-6′-one], the IC50 was found to be 70 nM in assay [9]; 6 µM in assay [10]; 2000 nM in assay [11]; 140 nM in assay [12]; 800 nM in assay [13].

Turning to `CN1CCN([C@H]2CC[C@H](Nc3ncc4cc5n(c4n3)C3(CCCCC3)CNC5=O)CC2)CC1` [Compound 37, 2′-(((1R,4R)-4-(4-Methylpiperazin-1-yl)cyclohexyl)amino)-7′,8′-dihydro-6′H-spiro[cyclohexane-1,9′-pyrazino[1′,2′:1,5]pyrrolo[2,3-d]pyrimidin]-6′-one], the IC50 amounted to 3 nM in assay [9]; 0.4 µM in [10]; 20 nM in assay [11]; 6 nM in assay [12]; 40 nM in assay [13].

As for `CO[C@H]1CC[C@]2(CC1)CNC(=O)c1cc3cnc(Nc4ccc(N5CCN(C)CC5)cn4)nc3n12` [Compound 39, (1R,4R)-4-Methoxy-2′-((5-(4-methylpiperazin-1-yl)pyridin-2-yl)amino)-7′,8′-dihydro-6′H-spiro [cyclohexane-1,9′-pyrazino[1′,2′:1,5]pyrrolo [2,3-d]pyrimidin]-6′-one], the IC50 worked out at 200 nM in assay [9]; 33 µM in [10]; 19000 nM in assay [11]; 60 nM in assay [12]; 90 nM in assay [13].

`CO[C@H]1CC[C@@]2(CC1)CNC(=O)c1cc3cnc(Nc4ccc(N5CCN(C)CC5)cn4)nc3n12` [Compound 38, (1S,4S)-4-Methoxy-2′-((5-(4-methylpiperazin-1-yl)pyridin-2-yl)amino)-7′,8′-dihydro-6′H-spiro[cyclohexane-1,9′-pyrazino[1′,2′:1,5]pyrrolo [2,3-d]pyrimidin]-6′-one]: the IC50 in assay [9] amounted to 200 nM; in [10], 14 µM; in assay [11], 5000 nM; in assay [12], 7 nM; in assay [13] it was 10 nM.

Regarding `CN1CCN(c2ccc(Nc3ncc4c(n3)N3CCCCC3CC4=O)nc2)CC1` (centres unmarked) [Compound 7, 2-((5-(4-methylpiperazin-1-yl)pyridin-2-yl)amino)-6,6a,7,8,9,10-hexahydro-5H-pyrimido[5,4-c]quinolizin-5-one], the IC50 was above 100 µM in assay [1]; 4.7 µM in assay [2]; above 100 µM in assay [8]; above 100 µM in [3]; above 100 µM in assay [4]; above 100 µM in assay [5]. Also, the IC50 is 1.8 µM in assay [6] and above 100 µM in [7].

On to `CN1CCN(c2ccc(Nc3ncc4c(n3)N3CCNC(=O)C3CC4=O)nc2)CC1` (centres unmarked) [Compound 6, 2-((5-(4-methylpiperazin-1-yl)pyridin-2-yl)amino)-6,6a,9,10-tetrahydro-5H-pyrazino[1′,2′:1,6]pyrido[2,3-d]pyrimidine-5,7(8H)-dione], for which the IC50 in [1] was above 100 µM; in assay [2], 14.4 µM; in assay [8], above 100 µM; in [3] it was above 100 µM; in [4] it was above 100 µM; in [5], above 100 µM. Besides, the IC50 in [6] was 50.4 µM; in assay [7], above 100 µM.

On to `CN1CCN(c2ccc(Nc3ncc4c(n3)N3C(=NCC35CCCCC5)C(=O)N4)nc2)CC1` [Compound 27, 2′-((5-(4-Methylpiperazin-1-yl)pyridin-2-yl)amino)-5′H-spiro[cyclohexane-1,9′-imidazo[2,1-h]pteridin]-6′(8′H)-one], for which the IC50 was above 100000 nM in assay [9]; above 100 µM in assay [10]; above 100000 nM in [11]; 9400 nM in assay [12]; 21000 nM in assay [13].

On to `CN1CCN(c2ccc(Nc3ncc4cc5n(c4n3)C3(C=NC5)CCCCC3)nc2)CC1` [Compound 31, N-(5-(4-Methylpiperazin-1-yl)pyridin-2-yl)-6′H-spiro[cyclohexane-1,9′-pyrazino[1′,2′:1,5]pyrrolo[2,3-d]pyrimidin]-2′-amine], for which the IC50 in assay [9] is 40 nM; in assay [10] it was 0.04 µM; in assay [11], 100 nM; in assay [12] it was 0.6 nM; in assay [13], 1 nM.

On to `O=C1NCC2(CCCCC2)n2c1cc1cnc(N[C@H]3CC[C@H](N4CCN(CC5CC5)CC4)CC3)nc12` [Compound 36, 2′-(((1R,4R)-4-(4-(Cyclopropylmethyl)piperazin-1-yl)cyclohexyl)amino)-7′,8′-dihydro-6′H-spiro [cyclohexane-1,9′-pyrazino[1′,2′:1,5]pyrrolo[2,3-d]pyrimidin]-6′-one], for which the IC50 was 2 nM in assay [9]; 0.3 µM in assay [10]; 100 nM in assay [11]; 4 nM in [12]; 30 nM in assay [13].

`CN1CCN(c2ccc(Nc3ncc4cc5n(c4n3)C3(CCCCC3)Cn3ccnc3-5)nc2)CC1` [Compound 25, N-(5-(4-Methylpiperazin-1-yl)pyridin-2-yl)-5′H -spiro[cyclohexane-1,6′-imidazo[2″,1″:3′,4′]pyrazino[1′,2′:1,5]pyrrolo[2,3-d]pyrimidin]-9′-amine]: the IC50 was determined as 6300 nM in assay [9]; 99 µM in assay [10]; 59000 nM in [11]; 30 nM in assay [12]; 100 nM in assay [13].

`CN1CCN(c2ccc(Nc3ncc4cc5n(c4n3)C3(CCCCC3)C(=O)NC5)nc2)CC1` [Compound 33, 2′-((5-(4-Methylpiperazin-1-yl)pyridin-2-yl)amino)-6′,7′-dihydro-8′H-spiro[cyclohexane-1,9′-pyrazino [1′,2′:1,5]pyrrolo[2,3-d]pyrimidin]-8′-one]: the IC50 came out at 3000 nM in assay [9]; 4 µM in [10]; 2000 nM in assay [11]; 6 nM in assay [12]; 20 nM in assay [13].

Take `CN1CCN(c2ccc(Nc3ncc4cc5n(c4n3)C3(CCOCC3)CNC5=O)nc2)CC1` [Compound 34, 2′-((5-(4-Methylpiperazin-1-yl)pyridin-2-yl)amino)-2,3,5,6,7′,8′-hexahydro-6′H-spiro [pyran-4,9′-pyrazino [1′,2′:1,5]pyrrolo [2,3-d]pyrimidin]-6′-one]: the IC50 in assay [9] came to 400 nM; in [10] it was 23 µM; in assay [11], 14000 nM; in assay [12], 20 nM; in [13] it was 20 nM.

Consider `O=C1NCC2(CCCCC2)n2c1cc1cnc(N[C@H]3CC[C@@H](N4CCN(CC5CC5)CC4)CC3)nc12` [Compound 40, 2′-(((1S,4S)-4-(4-(Cyclopropylmethyl)piperazin-1-yl)cyclohexyl)amino)-7′,8′-dihydro-6′H-spiro [cyclohexane-1,9′-pyrazino[1′,2′:1,5]pyrrolo[2,3-d]pyrimidin]-6′-one], for which the IC50 worked out at 50 nM in assay [9]; 5 µM in assay [10]; 2000 nM in assay [11]; 90 nM in assay [12]; 500 nM in [13].
